Data set [1] is classed as physicochemical. The note with it: classified from Log P. The text has this: As used herein, a “partition coefficient” is defined as the ratio of concentrations of an un-ionized compound between solutions of water and octanol. To measure the partition coefficient of ionizable solutes, the pH of the aqueous phase is adjusted such that the predominant form of the compound is un-ionized. The logarithm of the ratio of the concentrations of the un-ionized solute in the solvents is referred to herein as log P or log K ow.
As noted herein, the octanol-water partition coefficient may be used to identify the cuticular penetration of a particular active ingredient. One factor in the relative speed through which any insecticide acts is the insecticide's ability to cross the insect cuticle. A determining factor for cuticle penetration is Log K ow, also known as Log P. Log K ow (Log P) is the octanol-water partition coefficient for a neutral molecule. Log P is used hereinfurther, but, as noted above, the term is synonymous with Log K ow. As previously noted, the cuticular penetration of any particular active ingredient as against a plant cuticle is not indicative of that same active ingredient's ability to penetrate an insect cuticle.
The cuticular penetration of a compound is classified as “INTERMEDIATE” when the Log P value is between about 2.0 and about 4.0.

The conditions of data set [2]: octanol-water partition coefficient (Log K ow), Table 1; cited from earlier work.
Data set [3] deals with tropical house mosquito Culex quinquefasciatus (adults, 3 days old). Description: Efficacy of formulations on surfaces (glazed/unglazed tiles, plywood), ten 3 day old mosquitoes, 3 min exposure. To be noted: 0.002% = 1 mg DTM/m^2 on glazed tiles; EC formulation; 3 minutes exposure. The format is in vivo. The protocol: The ingredients were diluted in acetone to give a concentration which corresponds to the desired quantity of a.i./m^2. A 1 ml quantity of the solution was applied by pipette onto the 15 cm×15 cm surfaces without treating the outer edge of 1 cm.
Ten 3 day old Culex quinquefasciatus mosquitoes were exposed to each treatment for 3 minutes under a perforated petri dish, and then a clean untreated white paper index card was moved between treated surface and petri dish. A water-soaked cotton pad was applied immediately after.
Each test consisted of three replicates (three batches of ten mosquitoes were exposed for three minutes to the same surface, each one hour later), of which the mean values are calculated.
The test insects were Culex quinquefasciatus (adults, 3 days old). The compositions were evaluated for their ability to provide effective knock down after 3, 9, 15, and 30 minutes, 1, 2, 3, 4 and 24 hours (mortality). The experiments were performed in triplicate on glazed tile, but not repeated on wood.
Test Insects are Culex quinquefasciatus (adults, 3 days old). The Application provides the technical compounds were dissolved in acetone and applied as 1 ml solutions onto glazed tiles (15 cm×15 cm). An evaluation is provided at knock down after 3, 9, 15, and 30 minutes, 1, 2, 3, 4 and 24 hours (mortality). There are 3 replicates.
Test Insects: Culex quinquefasciatus (adults, 3 days old)
Application: The technical compounds were dissolved in acetone and applied as 1 ml solutions onto glazed tiles (15 cm×15 cm).
Evaluation: Knock down after 3, 9, 15, and 30 minutes, 1, 2, 3, 4 and 24 hours (mortality) […]
Application: The active ingredients were applied as 1 ml acetone solutions onto glazed tiles (15 cm×15 cm) […]
For the mosquitoes, the USDA Petri Dish Method is used. Ten 3 day old Culex quinquefasciatus mosquitoes are exposed to each treatment for 3 minutes under a perforated petri dish and then a clean untreated white paper index card is moved between treated surface and petri dish. A water-soaked cotton pad is applied immediately after. […]

For data set [4], the system named is Musca domestica, susceptible strain WHO(N). Put plainly: Efficacy of formulations on surfaces (glazed/unglazed tiles), house flies, continuous exposure. The format is in vivo. The note with it: Table 114; 0.002% = 1 mg DTM/m^2 on glazed tiles; EC formulation; continuous exposure. The protocol:
A flat fan nozzle (type SS 8003-E) in a spray cabin was moved automatically over a defined area where the solutions were sprayed very evenly onto the surfaces. The formulation was mixed with water to give a concentration which corresponded to the desired quantity of a.i./m^2. A defined quantity of this solution was sprayed onto the area (nominal 350 liter/ha=0.77 ml per surface).
(§1) All surfaces were provided with talcum-coated glass rings (diameter 9.5 cm, height 5.5 cm) one day later.
The test insects were anesthetized with CO2, 20 individuals were placed onto the treated surfaces and the glass ring was covered with wire gauze ring.
Knock down was determined after 15 and 30′, 1, 2, 4 and 6 hours, mortality after 1 day exposure.
(§2) Each test consisted of at least one replicate and any additional replicates are noted.
(§3) Test Insects: House flies (Musca domestica) of both sexes, susceptible strain WHO(N) and resistant strain Reichswald
(§4) Evaluation: Mortality was evaluated cumulatively at different times. […]
(§5) Test Insects: Culex quinquefasciatus (adults) (3 minutes exposure time according to USDA Petri Dish Method), Musca domestica (adults), susceptible and resistant strain, Blattella germanica (males), Cimex lectularius (adults) (all: continuous exposure time)
(§6) Application: The EC formulation (diluted with water 1:9) were applied as 0.85 ml solutions onto glazed tiles (15 cm×15 cm)
(§7) Evaluation: Knock down after 15, and 30 minutes, 1, 2, 3, 4, 6 and 24 hours (mortality)
(§8) Test Insects: Culex quinquefasciatus (adults, susceptible) (3 minutes exposure time according to USDA Petri Dish Method), Musca domestica (adults, susceptible and resistant), Blattella germanica (males, susceptible) (both: continuous exposure time)
(§9) Formulations: Insecticide with or without 10% Compound A (as EC), to be diluted with water (1 part formulation+9 parts water)
Evaluation: Knock down after 3, 9 (mosquitoes only), 15, and 30 minutes, 1, 2, 3, 4 and 24 hours (mortality) […]

The test system of data set [5] is Musca domestica, resistant strain Reichswald. Described as above. The note with it: Table 115; 0.002% = 1 mg DTM/m^2 on glazed tiles; EC formulation; continuous exposure. The format is in vivo. The protocol:
as §1
(§10) The test insects were anesthetized with CO2, 20 individuals were placed onto the treated surfaces and the glass ring was covered with wire gauze ring. […]
as §2, §3, §4, §5, §6

Data set [6] relates to Blattella germanica (males, susceptible). Put plainly: Efficacy of EC formulations on glazed/unglazed tiles, continuous exposure. The format is in vivo. To be noted: 0.002% = 1 mg DTM/m^2 on glazed tiles, EC formulation. The protocol: as §1, §10
Each test consisted of at least one replicate and any additional replicates are noted. […]
as §8, §9
Application: 1 ml of the diluted formulations was applied by pipette onto glazed tiles (15×15 cm)
(§11) Evaluation: Knock down after 3, 9 (mosquitoes only), 15, and 30 minutes, 1, 2, 3, 4 and 24 hours (mortality)

Data set [7] has as its system Cimex lectularius (adults). Description: Efficacy on glazed tiles (acetone solutions or EC formulations), continuous exposure. The format is in vivo. The note with it: on tiles, insecticide alone (imidacloprid 50 mg/m^2, Bendiocarb 50 mg/m^2, Ethiprole 10 mg/m^2, DTM 1 mg/m^2), no Compound A. The protocol: as §5, §6, §7
Test Insects: Culex quinquefasciatus (adults) (3 minutes exposure time according to USDA Petri Dish Method), Cimex lectularius (adults), Acheta domesticus (middle nymphs) (both: continuous exposure time)
Application: The active ingredients were applied as 1 ml acetone solutions onto glazed tiles (15 cm×15 cm)
as §11
Test Insects: Culex quinquefasciatus (adults) (3 minutes exposure time according to USDA Petri Dish Method), Cimex lectularius (adults), (continuous exposure time)
Test Insects: Cimex lectularius, Culex quinquefasciatus, Musca domestica (all adults, susceptible strains)
Application: The active ingredients were applied as 1 ml acetone solutions onto glazed tiles (15 cm×15 cm), continuous exposure time

The structures appear in SMILES notation.

With `N#Cc1ccc(CC(=NNC(=O)Nc2ccc(OC(F)(F)F)cc2)c2cccc(C(F)(F)F)c2)cc1` (mixture of isomers) [metaflumizone], the “Likelihood of Direct Insect Cuticular Penetration” value (“Likelihood” for short) in data set [1] is recorded as “Fast (classified as “FAST” when it has a Log P value of about >4.0)”. In addition, the “Log P” value in data set [2] was 5.1.
With `Cc1c(COC(=O)[C@@H]2[C@H](/C=C(\Cl)C(F)(F)F)C2(C)C)cccc1-c1ccccc1` (racemic) [bifenthrin], the “Likelihood” value in data set [1] is “Fast (classified as “FAST” when it has a Log P value of about >4.0)”. Also, the lipophilicity (Log P) in data set [2] is reported as 6.0.
Take `COC(C)(C)CCC[C@H](C)C/C=C/C(C)=C/C(=O)OC(C)C` (racemic) [methoprene]: the “Likelihood” value in data set [1] is “Fast (classified as “FAST” when it has a Log P value of about >4.0)”. Besides, the “Log P” value in data set [2] is over 6.0.
Take `CC1(C)[C@H](C(=O)O[C@H](C#N)c2cccc(Oc3ccccc3)c2)[C@@H]1C=C(Br)Br` [DTM]: the “% KD and Mortality 15′” value in data set [3] is 0%; in data set [4] it was 10%; in data set [5] it was 0%; in data set [6] it was 0%. Besides, the “% KD and Mortality 30′” value in data set [3] was determined as 0%; in data set [4], 85%; in data set [5] it was 0%; in data set [6], 40%. The “% KD and Mortality 1 h” value in data set [3] is 10%; in data set [4], 95%; in data set [5], 0%; in data set [6], 100%. In addition, the “% KD and Mortality 2 h” value in data set [3] is reported as 10%; in data set [4] it was 100%; in data set [5], 0%; in data set [6], 100%. Besides, the “% KD and Mortality 3 h” value in data set [3] is reported as 10%; in data set [4], 100%; in data set [5], 0%; in data set [6], 100%. The “% KD and Mortality 4 h” value stood at 10% in data set [3], 100% in data set [4], 0% in data set [5] and 100% in data set [6]. In addition, the “% KD and Mortality 6 h” value in data set [3] amounted to 20%; in data set [4], 100%; in data set [5] it was 0%; in data set [6], 100%. For the same compound, the “% KD and Mortality 24 h” value in data set [3] was found to be 80%; in data set [4], 100%; in data set [5], 5%; in data set [6] it was 100%. In addition, the “% KD and Mortality” value in data set [7] (15′) is on record as 0%; in data set [7] (30′), 0%; in data set [7] (1 h) it was 0%; in data set [7] (2 h), 10%; in data set [7] (3 h), 80%; in data set [7] (4 h), 100%. Further, the “% KD and Mortality” value in data set [7] (6 h) and in data set [7] (24 h) was 100% in each case.
Regarding `C/C(=N\C#N)N(C)Cc1ccc(Cl)nc1` [acetamiprid], in data set [1], the “Likelihood” value is recorded as “Slow (classified as “SLOW” when the compound has a Log P value of about <2.0)”. Moreover, in data set [2], the “Log P” value is 0.8.
With `CNC(=O)Oc1cccc2ccccc12` [carbaryl], in data set [1], the “Likelihood” value was “Intermediate (classified as “INTERMEDIATE” when the Log P value is between about 2.0 and about 4.0)”. For the same compound, the “Log P” value in data set [2] is given as 2.8.
Turning to `CN/C(=N\[N+](=O)[O-])NCc1cnc(Cl)s1` [clothianidin], the “Likelihood” value in data set [1] is listed as “Slow (classified as “SLOW” when the compound has a Log P value of about <2.0)”. Further, the “Log P” value in data set [2] is recorded as 0.7.
Regarding `CCOC(=O)NCCOc1ccc(Oc2ccccc2)cc1` [fenoxycarb], the “Likelihood” value in data set [1] is given as “Fast (classified as “FAST” when it has a Log P value of about >4.0)”. In addition, the log partition coefficient (Log P) in data set [2] is given as 4.1.
In the case of `O=C(NC(=O)c1c(F)cccc1F)Nc1cc(Cl)c(OC(F)(F)C(F)F)c(Cl)c1` [hexaflumuron], in data set [1], the “Likelihood” value was “Fast (classified as “FAST” when it has a Log P value of about >4.0)”. Moreover, the log partition coefficient (Log P) in data set [2] is 5.6.

(Values after patent US9028856B2, “Synergistic pesticide compositions” (priority 2008, dated 2015).)
